Activity and IC90 data for 14 compounds are collected here from ChEMBL document CHEMBL2439949, “Synthesis and structure-activity relationships of phenyl-substituted coumarins with anti-tubercular activity that target FadD32” (Bioorg Med Chem Lett, 2013).

Active and inactive are the calls of the source. No cut-off for these calls is given here.

In test [1] the test system is Mycobacterium tuberculosis. Put plainly: Antimycobacterial activity against Mycobacterium tuberculosis expressing FadD32 E120G mutant at 125 uM after 7 days. The format is functional, organism-based.
Test [2] has as its system Mycobacterium tuberculosis. Kind of test: Antimycobacterial activity against Mycobacterium tuberculosis expressing FadD32 E120G mutant after 7 days. The format is functional.

As usually defined, the IC90 is the concentration needed for an effect of 90%. A higher IC90 goes with a need for much substance.

`Cc1cc2oc(=O)cc(-c3ccccc3)c2c(C)c1-c1ccncc1`: in test [1], the result was inactive.

As to `Cc1cc2oc(=O)cc(-c3ccccc3)c2c(C)c1-c1ccc(CO)cc1`, in test [1], the result was inactive.

As for `Cc1cc2oc(=O)cc(-c3ccccc3)c2c(C)c1-c1ccc(CN2CCCCC2)cc1`, the result in test [1] was inactive. The same measure, in the same setting: the value for `Cc1cc2oc(=O)cc(-c3ccc(N)cc3)c2c(C)c1-c1ccc(CN2CCOCC2)cc1` was “inactive”; that for `Cc1cc2oc(=O)cc(-c3ccccc3)c2c(C)c1-c1ccc(CN2CCOCC2)cc1` was “inactive”.

As for `Cc1cc2oc(=O)cc(-c3ccccc3)c2c(C)c1-c1ccc(C(C)O)cc1` (stereo not given), in test [1], the outcome was inactive. In the case of `Cc1cc2oc(=O)cc(-c3cccc([N+](=O)[O-])c3)c2c(C)c1-c1ccc(CN2CCOCC2)cc1`, the outcome in test [1] was inactive. Same read-out and setting: the value for `Cc1cc2oc(=O)cc(-c3cccnc3)c2c(C)c1-c1ccc(CN2CCOCC2)cc1` was “inactive”. As for `CNC(=O)c1ccc(-c2c(C)cc3oc(=O)cc(-c4ccccc4)c3c2C)cc1`, the outcome in test [1] was inactive. Take `Cc1cc2oc(=O)cc(-c3ccccc3)c2c(C)c1-c1ccc(CNC2CCCCC2)cc1`: the result in test [1] was inactive. The compound further showed an IC90 in test [2] of 32 µM.

Regarding `Cc1cc2oc(=O)cc(-c3ccccc3)c2c(C)c1-c1ccccc1Cl`, the result in test [1] was inactive. Regarding `Cc1cc(CO)ccc1-c1c(C)cc2oc(=O)cc(-c3ccccc3)c2c1C`, the result in test [1] was inactive. On the same count and under the same terms, the value for `CC(=O)Nc1cccc(-c2cc(=O)oc3cc(C)c(-c4ccc(CN5CCOCC5)cc4)c(C)c23)c1` was “inactive”. On the same count and under the same terms, the value for `Cc1cc2oc(=O)cc(-c3ccccc3)c2c(C)c1-c1ccc(CN2CCN(C)CC2)cc1` was “inactive”.
